Data published in EP4768499A1, “MACROCYCLIC PEPTIDE COMPOUND HAVING CELL MEMBRANE PERMEABILITY AND METABOLIC STABILITY, AND LIBRARY CONTAINING SAME” (Chugai Seiyaku Kabushiki Kaisha, priority 2023, dated 2025).
Where two headings read alike, the source gives them in different places. Starred links: 1 amine or outer side, 2 acyl side, 3 side chain; linkers in the order of their positions; H or OH if unused. Positions of bridges follow the written chain, without caps; N, C: chain ends. Non-standard residues stand in square brackets, D forms with d. Residues, ends and D or L forms follow the SMILES beside them. *: point of attachment. NMedβ3hAla = C[C@H](CC(=O)[*:2])N(C)[*:1]; NMeF = CN[C@@H](Cc1ccccc1)C(=O)O; NMeI = CC[C@H](C)[C@H](NC)C(=O)O; NMeT = CN[C@H](C(=O)O)[C@@H](C)O; hPhe = N[C@@H](CCc1ccccc1)C(=O)O; NMeβAla = CN(CCC(=O)[*:2])[*:1]; NMeD = CN[C@@H](CC(=O)O)C(=O)O; NMeL = CN[C@@H](CC(C)C)C(=O)O; dNMeV = CN[C@@H](C(=O)O)C(C)C; NMeV = CN[C@H](C(=O)O)C(C)C; d(β3hA) = C[C@@H](N)CC(=O)O; NMeAbu = CC[C@H](NC)C(=O)O; NMeA = CN[C@@H](C)C(=O)O; Piperidide = C1CCN(*)CC1; Abu = CC[C@H](N)C(=O)O; Sar = CNCC(=O)O; tBu = CC(C)(C)*

What was measured:
[1] = system: Caco-2 cells; test: Membrane permeability test using Caco-2 cells with preincubation; format: in vitro ADME
[2] = as above; format: in vitro ADME; conditions: Caco-2
[3] = Metabolic stability test: liver microsomal stability assay; format: in vitro ADME, mouse; conditions: for microsomal CLint at 1 µM: male, pH 7.4, presence of NADPH, read-out: Mouse Hepatic Microsome CLh,int NADPH(+)
[4] = Caco-2 cells, preincubation 20 to 24 hours, apical FaSSIF/HBSS 1% DMSO pH 6.0, basal HBSS 4% BSA pH 7.4, basal sample at 180 minutes
[5] = preincubation 20 to 24 hours, Apical FaSSIF/HBSS pH 6.0, Basal HBSS 4% BSA pH 7.4, 180 minutes, read-out: Caco2 Papp
[6] = mouse liver microsomes 0.5 mg protein/mL, compound 1 µM
[7] = mouse liver microsomes 0.5 mg protein/mL, compound 1 µM, absence of NADPH

Row | Caco2 Papp (10^-6 cm/sec) [1, 4] | Papp A→B [2, 5] [×10⁻⁶ cm/s] | microsomal CLint at 1 µM [3, 6] [µL/min/mg] | Mouse Hepatic Microsome CLh,int NADPH(-) [3, 7] [µL/min/mg Protein] | Structure (SMILES) | Caco2 Papp (10^-6 cm/sec) ([1]; Caco-2) | Papp A→B [2] [×10⁻⁶ cm/s] | Mouse Hepatic Microsome CLh,int NADPH(-) [3] [µL/min/mg Protein]
1 | 0.04 10^-6 cm/sec | 0.04 | 28.2 | 36.5 | CC[C@@H]1NC(=O)[C@H](Cc2ccccc2)N(C)C(=O)[C@H](CC(C)C)N(C)C(=O)[C@H](CC(C)C)NC(=O)[C@H](C)N(C)C(=O)C[C@@H](C(=O)N2CCCCC2)N(C)C(=O)[C@H](CC(C)C)N(C)C(=O)[C@H]([C@@H](C)CC)NC(=O)[C@H](Cc2ccccc2)N(C)C(=O)[C@H]([C@@H](C)O)N(C)C(=O)[C@H]([C@@H](C)CC)N(C)C(=O)[C@H](CC(C)C)NC(=O)CN(C)C1=O [pd163] ([NMeA]L[NMeL][NMeF][Abu][Sar]L[NMeI][NMeT][NMeF]I[NMeL][NMeD]-Piperidide; lactam N-13) |  |  | 
2 | 1.02 10^-6 cm/sec | 1.02 | 21.9 | 18.2 | CC[C@H](C)[C@@H]1NC(=O)[C@H](C)N(C)C(=O)C[C@@H](C(=O)N2CCCCC2)NC(=O)[C@H](CC)N(C)C(=O)[C@H](COC(C)(C)C)NC(=O)[C@H](CC(C)C)N(C)C(=O)[C@H](C)N(C)C(=O)[C@H](CC(C)C)N(C)C(=O)[C@H](Cc2ccccc2)N(C)C(=O)CN(C)C(=O)[C@H]([C@@H](C)O)NC(=O)[C@H](CC(C)C)N(C)C(=O)[C@H](Cc2ccccc2)N(C)C1=O [pd121] ([NMeA]I[NMeF][NMeL]T[Sar][NMeF][NMeL][NMeA][NMeL]S(tBu)[NMeAbu]D-Piperidide; lactam N-13) |  |  | 
3 | 0.75 10^-6 cm/sec | 0.75 | 38.5 | 11.4 | CC[C@H](C)[C@@H]1NC(=O)[C@H](CC(C)C)N(C)C(=O)[C@H](C)N(C)C(=O)[C@H](C)N(C)C(=O)C[C@@H](C)NC(=O)[C@H](CC(C)C)NC(=O)[C@H](CC(C)C)N(C)C(=O)CN(C)C(=O)[C@H]([C@@H](C)O)NC(=O)[C@H]([C@@H](C)CC)N(C)C(=O)[C@H](CC(C)C)N(C)C(=O)[C@H](C(C)C)NC(=O)[C@H](Cc2ccccc2)N(C)C1=O [pd134] (cyclo(I[NMeF]V[NMeL][NMeI]T[Sar][NMeL]L[d(β3hA)][NMeA][NMeA][NMeL])) |  |  | 
4 | 0.36 10^-6 cm/sec | 0.36 | 41.6 | 28.0 | CC[C@H](C)[C@@H]1NC(=O)[C@H](CC(C)C)N(C)C(=O)[C@H](CC(C)C)NC(=O)[C@H](C)N(C)C(=O)C[C@@H](C)NC(=O)[C@H](CC(C)C)NC(=O)[C@H](CC(C)C)N(C)C(=O)CN(C)C(=O)[C@H](C(C)C)NC(=O)[C@H]([C@@H](C)CC)N(C)C(=O)[C@H](CC(C)C)N(C)C(=O)[C@H](C)NC(=O)[C@H](Cc2ccccc2)N(C)C1=O [pd127] (cyclo(A[NMeL][NMeI]V[Sar][NMeL]L[d(β3hA)][NMeA]L[NMeL]I[NMeF])) |  |  | 
5 | 0.69 10^-6 cm/sec | 0.69 | 25.8 | 18.4 | CC[C@H](C)[C@H]1C(=O)N[C@@H]([C@@H](C)O)C(=O)N(C)CC(=O)N(C)[C@@H](CC(C)C)C(=O)N(C)[C@@H](Cc2ccccc2)C(=O)N[C@H](C(=O)N2CCCCC2)CC(=O)N(C)[C@@H](C)C(=O)N[C@@H](CC(C)C)C(=O)N(C)[C@@H](Cc2ccccc2)C(=O)N(C)CCC(=O)N(C)[C@@H](CC(C)C)C(=O)N(C)CCC(=O)N[C@@H](CC(C)C)C(=O)N1C [pd120] ([NMeA]L[NMeF][NMeβAla][NMeL][NMeβAla]L[NMeI]T[Sar][NMeL][NMeF]D-Piperidide; lactam N-13) |  |  | 
6 | 0.09 10^-6 cm/sec | 0.09 | 24.9 | 12.3 | CC[C@H](C)[C@@H]1NC(=O)[C@H](CC(C)C)N(C)C(=O)CN(C)C(=O)C[C@@H](C(=O)N2CCCCC2)NC(=O)[C@H](C)N(C)C(=O)CNC(=O)[C@H](C(C)C)N(C)C(=O)[C@H](C)N(C)C(=O)[C@H](Cc2ccccc2)N(C)C(=O)[C@H](CC(C)C)NC(=O)[C@H](Cc2ccccc2)N(C)C(=O)[C@H]([C@@H](C)O)NC(=O)[C@H](CC(C)C)N(C)C1=O [pd115] ([Sar][NMeL]I[NMeL]T[NMeF]L[NMeF][NMeA][NMeV]G[NMeA]D-Piperidide; lactam N-13) |  |  | 

Continued, compound first:

Row | Structure (SMILES) | Caco2 Papp (10^-6 cm/sec) [1, 4] | Papp A→B [2, 5] [×10⁻⁶ cm/s] | microsomal CLint at 1 µM [3, 6] [µL/min/mg] | Mouse Hepatic Microsome CLh,int NADPH(-) [3, 7] [µL/min/mg Protein] | Caco2 Papp (10^-6 cm/sec) ([1]; Caco-2) | Papp A→B [2] [×10⁻⁶ cm/s] | Mouse Hepatic Microsome CLh,int NADPH(-) [3] [µL/min/mg Protein]
7 | CC[C@@H]1NC(=O)[C@H](C(C)C)NC(=O)[C@H]([C@@H](C)CC)N(C)C(=O)[C@H](CCc2ccccc2)NC(=O)[C@H](Cc2ccccc2)N(C)C(=O)[C@H]([C@@H](C)CC)NC(=O)[C@H](CC(C)C)N(C)C(=O)[C@H](CC(C)C)NC(=O)CCN(C)C(=O)C[C@@H](C)N(C)C(=O)[C@H](CC(C)C)N(C)C(=O)CNC(=O)[C@@H]2CCCN2C(=O)[C@H](CC(C)C)N(C)C1=O [pd064] (cyclo([Abu][NMeL]PG[NMeL][NMedβ3hAla][NMeβAla]L[NMeL]I[NMeF][hPhe][NMeI]V)) | 0.04 10^-6 cm/sec | 0.04 | 41.4 | 43.3 |  |  | 
8 | CC[C@H](C)[C@@H]1NC(=O)CN(C)C(=O)C[C@@H](C(=O)N2CCCCC2)N(C)C(=O)[C@H](C(C)C)NC(=O)[C@H](Cc2ccccc2)N(C)C(=O)[C@H](CC(C)C)N(C)C(=O)[C@H]([C@@H](C)O)NC(=O)[C@H](CC(C)C)N(C)C(=O)[C@H](CC(C)C)NC(=O)[C@H](C(C)C)N(C)C(=O)[C@H](C)N(C)C(=O)[C@H](CC(C)C)N(C)C(=O)[C@H](CCc2ccccc2)NC(=O)[C@H](CC(C)C)N(C)C1=O [pd092] ([Sar]I[NMeL][hPhe][NMeL][NMeA][NMeV]L[NMeL]T[NMeL][NMeF]V[NMeD]-Piperidide; lactam N-14) | 0.09 10^-6 cm/sec | 0.09 | 22 | 26.3 |  |  | 
9 | CC[C@@H]1NC(=O)[C@H](CC(C)C)N(C)C(=O)[C@H](CC(C)C)NC(=O)[C@H](C)N(C)C(=O)C[C@@H](C(=O)N2CCCCC2)N(C)C(=O)[C@H](C)N(C)C(=O)[C@H](CC(C)C)NC(=O)[C@H](CC(C)C)N(C)C(=O)CNC(=O)[C@H]([C@@H](C)CC)N(C)C(=O)[C@H](Cc2ccccc2)N(C)C(=O)[C@H](C)NC(=O)[C@H]([C@@H](C)CC)NC(=O)[C@H](Cc2ccccc2)N(C)C1=O [pd075] ([NMeA]L[NMeL][Abu][NMeF]IA[NMeF][NMeI]G[NMeL]L[NMeA][NMeD]-Piperidide; lactam N-14) | 0.17 10^-6 cm/sec | 0.17 | 35.6 | 42.8 |  |  | 
10 | CC[C@H]1C(=O)N(C)[C@@H](C)C(=O)N[C@@H](CC(C)C)C(=O)N(C)[C@@H](C(C)C)C(=O)N[C@H](C)CC(=O)N[C@H](C(C)C)C(=O)N(C)[C@@H](CC(C)C)C(=O)N[C@@H](CC(C)C)C(=O)N(C)[C@@H](C(C)C)C(=O)N(C)[C@@H](CC(C)C)C(=O)N(C)CC(=O)N[C@@H]([C@@H](C)O)C(=O)N(C)[C@@H](Cc2ccccc2)C(=O)N[C@@H](COC(C)(C)C)C(=O)N1C [pd049] (cyclo(L[NMeV][NMeL][Sar]T[NMeF]S(tBu)[NMeAbu][NMeA]L[NMeV][d(β3hA)][dV][NMeL])) | 0.32 10^-6 cm/sec | 0.32 | 30.6 | 29.1 |  |  | 
11 | CC[C@H](C)[C@@H]1NC(=O)[C@H]([C@@H](C)CC)N(C)C(=O)[C@@H](C)NC(=O)C[C@@H](C(=O)N2CCCCC2)N(C)C(=O)[C@H](Cc2ccccc2)N(C)C(=O)[C@H](C(C)C)NC(=O)CCN(C)C(=O)[C@H](CC)N(C)C(=O)[C@H](CC(C)C)N(C)C(=O)[C@H](C)NC(=O)CN(C)C(=O)[C@H](CC(C)C)N(C)C(=O)CCN(C)C(=O)[C@H](Cc2ccccc2)N(C)C1=O [pd081] ([dA][NMeI]I[NMeF][NMeβAla][NMeL][Sar]A[NMeL][NMeAbu][NMeβAla]V[NMeF][NMeD]-Piperidide; lactam N-14) |  |  |  |  | 0.02 10^-6 cm/sec | 0.02 | 5.7
12 | CC[C@H]1C(=O)N[C@@H](C(C)C)C(=O)N[C@H](C(=O)N2CCCCC2)CC(=O)N(C)[C@H](C(C)C)C(=O)N(C)[C@@H](Cc2ccccc2)C(=O)N[C@@H](CC(C)C)C(=O)N(C)CC(=O)N[C@@H](CC(C)C)C(=O)N[C@@H]([C@@H](C)O)C(=O)N(C)[C@@H](CC(C)C)C(=O)N(C)[C@@H](C(C)C)C(=O)N[C@@H](C)C(=O)N[C@@H](COC(C)(C)C)C(=O)N(C)[C@@H](Cc2ccccc2)C(=O)N1C [pd020] ([dNMeV][NMeF]L[Sar]LT[NMeL][NMeV]AS(tBu)[NMeF][NMeAbu]VD-Piperidide; lactam N-14) | <0.11 10^-6 cm/sec | < 0.11 | 33.3 | 24.9 |  |  | 
13 | CC[C@@H]1NC(=O)[C@H](Cc2ccccc2)N(C)C(=O)[C@H](C(C)C)NC(=O)[C@H](COC(C)(C)C)NC(=O)[C@H](C)N(C)C(=O)CN(C)C(=O)[C@H](CC(C)C)NC(=O)[C@@H]2CCCN2C(=O)[C@H](C(C)C)N(C)C(=O)[C@H](C)NC(=O)[C@H](CC)N(C)C(=O)[C@@H](C(C)C)NC(=O)C[C@@H](C(=O)N2CCCCC2)NC(=O)[C@H](C(C)C)N(C)C1=O [pd013] ([dV][NMeAbu]A[NMeV]PL[Sar][NMeA]S(tBu)V[NMeF][Abu][NMeV]D-Piperidide; lactam N-14) | 0.04 10^-6 cm/sec | 0.04 | 12.1 | 6.1 |  |  | 
